Measured values from patent publication US11021435B2, “Serotonin receptor-targeting compounds and methods” (priority 2014, dated 2021).
Entries after “also recorded” stand apart in the source; their conditions may differ.

How the values were obtained:
H1 = H1 (Homo sapiens, UniProt P35367); assay: Radioreceptor competitive binding, [3H]mepyramine (4-PAT series); conditions: for Ki: 1.0 nM [3H]mepyramine, read-out: Affinity (Ki ± SEM) H1
Procedure: (§1) Radioreceptor competitive binding assays were carried out to assess the binding affinities of the compounds of the invention. Radioligand competitive displacement binding assays were performed in 96-well plates, using 3-5 μg of protein from membrane samples per well. Each concentration point in the binding experiments was performed in triplicates of samples, and each experiment was performed a minimum of three times. […] Non-specific binding was determined in the presence of or 10 μM mianserin for all three 5-HT2 receptors or 10 μM triprolidine for H1 receptors. Radioreceptor binding assay mixtures were incubated for 1.0 hour at 37° C., with termination by rapid filtration through Whatman GF/B filters using a 96-well cell harvester (Tomtec, Hamden, Conn.), which were subsequently washed five times with 50 mM Tris-HCl at room temperature. Filters containing bound [^3H]radioligand were dried, placed in vials containing 2 mL scintillation cocktail (ScintiVerse), allowed to equilibrate overnight, and then were counted for ^3H-induced scintillation using a Beckman-Coulter LS6500 counter.
(§2) Competition binding data were analyzed using nonlinear regression curve-fitting algorithms in GraphPad Prism, 6 for Windows (San Diego, Calif.). […] Ligand affinity was expressed as an approximation of Ki values by conversion of the IC50 value using the Cheng-Prusoff equation […] where L was the concentration of radioligand.

5-HT2A [1] = molecular target: T1, 5-HT2A (Homo sapiens, UniProt P28223); assay: Radioreceptor competitive binding, [3H]ketanserin (4-PAT series); conditions: 2.0 nM [3H]ketanserin; HCl salts; read-out: Affinity (Ki ± SEM) 5-HT2A
Procedure: as §1, §2

5-HT2C [2] = molecular target: T2, 5-HT2C (Homo sapiens, UniProt P28335); assay: Radioreceptor competitive binding, [3H]mesulergine (4-PAT series); conditions: read-out: Affinity (Ki ± SEM) 5-HT2C
T2 sequence (P28335 33-458): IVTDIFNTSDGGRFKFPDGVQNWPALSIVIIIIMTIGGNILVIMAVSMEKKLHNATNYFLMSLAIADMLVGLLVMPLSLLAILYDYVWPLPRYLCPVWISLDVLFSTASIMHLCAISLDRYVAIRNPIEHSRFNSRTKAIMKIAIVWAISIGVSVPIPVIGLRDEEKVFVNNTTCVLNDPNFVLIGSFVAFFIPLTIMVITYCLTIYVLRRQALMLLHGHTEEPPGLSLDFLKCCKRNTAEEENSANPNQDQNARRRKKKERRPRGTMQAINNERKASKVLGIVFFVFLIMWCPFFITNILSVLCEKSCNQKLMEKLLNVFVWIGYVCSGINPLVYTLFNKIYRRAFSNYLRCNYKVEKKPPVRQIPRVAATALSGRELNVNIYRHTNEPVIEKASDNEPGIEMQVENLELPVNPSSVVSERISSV
Procedure: as §1, §2

5-HT2B [3] = molecular target: T3, 5-HT2B (Homo sapiens, UniProt P41595); assay: as above; conditions: 1.95 nM [3H]mesulergine; read-out: Affinity (Ki ± SEM) 5-HT2B
Procedure: as §1, §2

[4] = molecular target: T4, human 5-HT7 receptors (5-HT7a) (Homo sapiens, UniProt P34969); assay: Radioligand competition binding ([3H]5-CT), HEK293 cells stably expressing human 5-HT7 receptors; conditions: Affinity Ki 5-HT7, our unreported observations
T4 construct: expressed in transfected cells
Description: FIGS. 4A-4C show the effects of 5-FPT are stereospecific. […] Data are expressed as the mean±SEM.

5-HT2A [5] = molecular target: T1, 5-HT2A; design: expressed in transfected cells; host or cells: HEK293, transient; conditions: cited from earlier work
5-HT2B [6] = molecular target: T3, 5-HT2B; design: expressed in transfected cells; host or cells: HEK293, transient; conditions: cited from earlier work
C57BI/6J mice = assay: DOI-elicited head-twitch response (HTR) in C57BI/6J mice
Description: The 5-HT2A receptor is a predominant 5-HT receptor in the cortex, and serves important excitation modulation functions on glutamate pyramidal and GABA neurons.

5-HT2C [7] = molecular target: T2, 5-HT2C; assay: Receptor-mediated inositol phosphate hydrolysis, transfected HEK293 cells; assay type: cell-based; design: expressed in transfected cells; host or cells: HEK293, transient
Procedure: (§3) In brief, transiently transfected HEK293 cells were labeled with 1 μCi/ml [3H]myoinositol and seeded into 48-well plates. Cells were treated with test compounds for 30 minutes. The reaction was stopped by addition of 50 mM formic acid. Anion-exchange columns (Bio-Rad Laboratories, Hercules, Calif.) were used to bind and collect [3H]inositol phosphates. 3H-induced scintillations then were measured. Each experiment included a minimum of triplicate measurements for each concentration of test compound, and each experiment was performed a minimum of three times.

5-HT2A [8] = molecular target: T1, 5-HT2A; assay: as above; assay type: cell-based; design: expressed in transfected cells; host or cells: HEK293, transient; conditions: concentrations up to 10 μM
Procedure: as §3, with “Functional responses of analog 7l and 5-HT (positive control agonist, data not shown) by measuring 5-HT2 and H1 receptor-mediated inositol phosphate hydrolysis were assessed. In” for “In”

5-HT2B [9] = molecular target: T3, 5-HT2B; assay: as above; assay type: cell-based; design: expressed in transfected cells; host or cells: HEK293, transient
Procedure: as §3, with “Functional responses of analog 7l and 5-HT (positive control agonist, data not shown) by measuring 5-HT2 and H1 receptor-mediated inositol phosphate hydrolysis were assessed. In” for “In”

histamine H1 receptor = molecular target: T5, histamine H1 receptor (Homo sapiens, UniProt P35367); assay: as above; assay type: cell-based
T5 construct: expressed in transfected cells; host or cells: HEK293, transient
Procedure: as §3, with “Functional responses of analog 7l and 5-HT (positive control agonist, data not shown) by measuring 5-HT2 and H1 receptor-mediated inositol phosphate hydrolysis were assessed. In” for “In”

T3 sequence (P41595 whole entry): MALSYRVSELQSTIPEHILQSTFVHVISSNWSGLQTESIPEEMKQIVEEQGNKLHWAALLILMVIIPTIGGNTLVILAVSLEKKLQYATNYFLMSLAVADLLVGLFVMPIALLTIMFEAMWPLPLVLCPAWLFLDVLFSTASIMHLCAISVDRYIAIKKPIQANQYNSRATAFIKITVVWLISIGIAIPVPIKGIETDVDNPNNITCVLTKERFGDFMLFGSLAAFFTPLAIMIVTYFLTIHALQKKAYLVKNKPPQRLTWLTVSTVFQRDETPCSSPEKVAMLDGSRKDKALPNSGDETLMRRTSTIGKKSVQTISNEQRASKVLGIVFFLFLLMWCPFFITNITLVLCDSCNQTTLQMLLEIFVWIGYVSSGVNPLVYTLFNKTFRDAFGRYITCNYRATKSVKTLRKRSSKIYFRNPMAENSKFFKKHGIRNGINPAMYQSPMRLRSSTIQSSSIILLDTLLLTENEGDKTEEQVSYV
Chain of H1 (P35367 whole entry): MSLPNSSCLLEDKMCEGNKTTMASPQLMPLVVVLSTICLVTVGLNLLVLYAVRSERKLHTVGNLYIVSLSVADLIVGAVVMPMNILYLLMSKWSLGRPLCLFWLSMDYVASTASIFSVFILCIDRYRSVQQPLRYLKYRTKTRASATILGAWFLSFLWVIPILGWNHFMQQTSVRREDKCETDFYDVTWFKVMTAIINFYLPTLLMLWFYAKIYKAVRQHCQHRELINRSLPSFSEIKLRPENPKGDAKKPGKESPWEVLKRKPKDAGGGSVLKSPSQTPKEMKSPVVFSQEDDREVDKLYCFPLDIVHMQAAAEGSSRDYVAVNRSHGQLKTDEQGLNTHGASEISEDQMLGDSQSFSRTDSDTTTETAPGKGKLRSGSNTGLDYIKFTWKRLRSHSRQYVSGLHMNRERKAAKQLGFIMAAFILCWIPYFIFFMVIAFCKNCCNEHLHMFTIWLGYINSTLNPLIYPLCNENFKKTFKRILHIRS
T1 sequence (P28223 whole entry): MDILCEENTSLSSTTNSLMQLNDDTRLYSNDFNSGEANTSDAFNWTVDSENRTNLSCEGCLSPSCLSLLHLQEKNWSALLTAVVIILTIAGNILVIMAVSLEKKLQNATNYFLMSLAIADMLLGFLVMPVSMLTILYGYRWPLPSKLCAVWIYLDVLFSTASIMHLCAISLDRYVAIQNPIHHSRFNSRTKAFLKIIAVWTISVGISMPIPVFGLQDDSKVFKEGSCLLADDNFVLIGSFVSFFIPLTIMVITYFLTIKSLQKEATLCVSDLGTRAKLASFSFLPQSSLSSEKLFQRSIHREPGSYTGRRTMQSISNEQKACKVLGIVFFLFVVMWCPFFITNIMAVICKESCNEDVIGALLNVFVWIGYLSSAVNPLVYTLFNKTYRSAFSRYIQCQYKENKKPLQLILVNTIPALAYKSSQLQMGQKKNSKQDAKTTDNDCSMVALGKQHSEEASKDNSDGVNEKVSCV
T5 sequence (P35367 whole entry): as the sequence (P35367 whole entry) above
T4 sequence (P34969 1-445 isoform P34969-2): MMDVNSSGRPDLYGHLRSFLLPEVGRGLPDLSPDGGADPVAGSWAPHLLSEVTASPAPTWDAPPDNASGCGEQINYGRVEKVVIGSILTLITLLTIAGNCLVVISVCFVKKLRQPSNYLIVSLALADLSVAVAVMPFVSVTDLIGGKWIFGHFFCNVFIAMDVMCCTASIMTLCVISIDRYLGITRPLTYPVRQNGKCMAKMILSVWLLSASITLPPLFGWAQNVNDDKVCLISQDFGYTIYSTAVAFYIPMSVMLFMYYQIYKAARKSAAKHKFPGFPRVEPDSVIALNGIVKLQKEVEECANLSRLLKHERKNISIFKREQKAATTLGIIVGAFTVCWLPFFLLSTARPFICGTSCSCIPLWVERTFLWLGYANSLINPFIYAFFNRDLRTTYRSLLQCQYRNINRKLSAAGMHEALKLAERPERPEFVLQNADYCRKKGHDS

Compound	Ki (H1)	Ki (5-HT2A [1])	Ki (5-HT2C [2])	Ki (5-HT2B [3])	also measured
COc1cc2c(cc1Cl)C[C@@H](N(C)C)C[C@@H]2c1cccc(Br)c1 (single isomer, unassigned) [Compound 7j, Trans-4-(3′-Bromophenyl)-6-methoxy-7-chloro-N,N-dimethyl-1,2,3,4-tetrahydronaphthalen-2-amine]	230 ± 33 nM	61 ± 15 nM	130 ± 43 nM	50 nM	
CN(C)[C@@H]1Cc2cc(Cl)c(O)cc2[C@@H](c2ccccc2)C1 (single isomer, unassigned) [Compound 7n, Trans-4-Phenyl-6-hydroxy-7-chloro-N,N-dimethyl-1,2,3,4-tetrahydronaphthalen-2-amine]	3 ± 1 nM	60 ± 5.4 nM	23 ± 3 nM	91 nM	
CN(C)[C@@H]1Cc2cc(Cl)c(O)cc2[C@@H](c2ccccc2)C1 (single isomer, unassigned) [Compound 7m, Trans-4-Phenyl-6-hydroxy-7-chloro-N,N-dimethyl-1,2,3,4-tetrahydronaphthalen-2-amine]	109 ± 17 nM	70 ± 2.6 nM	1000 nM	1200 nM	
COc1cc2c(cc1Cl)C[C@@H](N(C)C)C[C@@H]2c1cccc(Br)c1 (single isomer, unassigned) [Compound 7i, Trans-4-(3′-Bromophenyl)-6-methoxy-7-chloro-N,N-dimethyl-1,2,3,4-tetrahydronaphthalen-2-amine]	650 ± 21 nM	79 ± 14 nM	350 ± 130 nM	169 ± 27 nM	
COc1cc2c(cc1Cl)C[C@@H](N(C)C)C[C@H]2c1ccccc1 (single isomer, unassigned) [Compound 7c, Cis-4-Phenyl-6-methoxy-7-chloro-N,N-dimethyl-1,2,3,4-tetrahydronaphthalen-2-amine]	> 1000 nM	2300 nM	1600 nM	2500 nM	Lower H1 receptor affinity than (+)-cis-PAT 1c analog (H1): about 10 fold
COc1cc(CC(C)N)c(OC)cc1I (racemic) [DOI, (±)-2,5-dimethoxy-4-iodoamphetamine, reference compound]					Ki [4]: > 1000 nM
COc1ccc2c(c1)[C@@H](c1cccc(Cl)c1)C[C@H](N(C)C)C2 (single isomer, unassigned) [Compound 7k, Trans-4-(3′-Chlorophenyl)-6-methoxy-N,N-dimethyl-1,2,3,4-tetrahydronaphthalen-2-amine]	740 ± 80 nM	350 ± 16 nM	280 ± 30 nM	310 ± 41 nM	
COc1cc2c(cc1Cl)C[C@@H](N(C)C)C[C@H]2c1ccccc1 (single isomer, unassigned) [Compound 7d, Cis-4-Phenyl-6-methoxy-7-chloro-N,N-dimethyl-1,2,3,4-tetrahydronaphthalen-2-amine]	10.8 ± 0.6 nM	320 ± 42 nM	96 ± 18 nM	43 ± 5 nM	
COc1cc2c(cc1Cl)C[C@@H](N(C)C)C[C@@H]2c1ccccc1 (single isomer, unassigned)	1.2 ± 0.6 nM	160 ± 24 nM	24 ± 2.5 nM	17.3 ± 5.33 nM	
C[C@H](N)Cn1ccc2cc(F)c(Cl)cc21 [Ro60-0175]					Activation of 5-HT2A receptors by reported selective 5-HT2C agonists (5-HT2A [5]): also activate; Activation of 5-HT2B receptors by reported selective 5-HT2C agonists (5-HT2B [6]): also activate
COc1cc2c(cc1Cl)CC(N(C)C)CC2c1cccc(Cl)c1 (single isomer, unassigned) [Compound 7f]	18.9 ± 0.7 nM	50 ± 20 nM	9 ± 2 nM	56 nM	
C[C@H]1CNCCc2ccc(Cl)cc21 [lorcaserin]					Activation of 5-HT2A receptors by reported selective 5-HT2C agonists (5-HT2A [5]): also activate; Activation of 5-HT2B receptors by reported selective 5-HT2C agonists (5-HT2B [6]): also activate
Cc1nn(C)c(C)c1-c1cccc2c1CC[C@H](N(C)C)C2 [AS-19, reference compound]					DOI-elicited HTR (C57BI/6J mice; C57BI/6J mice, DOI 1 mg/kg, 5-FPT up to 5.6 mg/kg, AS-19 10 mg/kg, DPAT 0.5 mg/kg): suppressed the DOI HTR; also recorded: attenuated the HTR; Locomotor behavior and serotonin syndrome seen in the DOI HTR assay (C57BI/6J mice; data not shown): neither (−)-DPAT, a 5-HT1A partial agonist, nor AS-19 affected locomotor behavior or caused obvious serotonin syndrome
COc1ccc2c(c1)[C@@H](c1cccc(Cl)c1)C[C@H](N(C)C)C2 (single isomer, unassigned) [Compound 7l, Trans-4-(3′-Chlorophenyl)-6-methoxy-N,N-dimethyl-1,2,3,4-tetrahydronaphthalen-2-amine]	86 ± 18 nM	35 ± 3 nM	17 ± 1 nM	65 nM	Emax (5-HT2C [7]; HEK293, read-out: Efficacy 5-HT2C, EMAX): 73 ± 6%; EC50 (5-HT2C [7]; read-out: Function 5-HT2C, EC50 (agonist potency)): 19 ± 1 nM; Reduced affinity at H1 receptors compared to unsubstituted PAT (7b) (H1): > 40 fold; Function 5-HT2A (activation) (5-HT2A [8]): did not activate; Function 5-HT2A (activation) (5-HT2A [8]; listed as 71): No; Efficacy 5-HT2B, Imax (5-HT2B [9]; inverse agonist): Imax = −17 ± 4.6%; IC50 (5-HT2B [9]; mean ± S.E.M.): 51 nM; Efficacy H1, Imax (histamine H1 receptor; inverse agonist): −25 ± 1.5%; IC50 (histamine H1 receptor; mean ± S.E.M.): 48 nM
